Like-named read-outs stand apart in the source and are kept apart here.
Key:
[1] = following oral administration, cited from earlier work
Plasma Tmax of meloxicam = assay type: in vivo; conditions: human, 30 mg, methods as disclosed herein (IV bolus)
patients [2] = assay: Onset, peak and duration of analgesic effect; assay type: in vivo, human; conditions: meloxicam administration as disclosed herein (IV)
patients [3] = conditions: intravenous; Prescribing Information; cited from earlier work

SMILES	time of maximum observed plasma concentration (tmax) [1] [h]	time of maximum observed plasma concentration (tmax) ([1]; listed as oral meloxicam) [h]	Tmax (Plasma Tmax of meloxicam) [min]	therapeutic window (patients [2])	time for the onset of pain relief (patients [3])
Cc1cnc(NC(=O)C2=C(O)c3ccccc3S(=O)(=O)N2C)s1 [meloxicam, 4-hydroxy-2-methyl-N-(5-methyl-2-thiazolyl)-2H-1,2-benzothiazine-3-carboxamide-1,1-dioxide]	5 to 7	5 to 6	4.8 to 9.6	at least 24 hours	
O=C(c1ccccc1)c1ccc2n1CCC2C(=O)O (centres unmarked) [ketorolac]					up to 30 minutes
